Some test systems named below: HS 578T breast; COLO 205 colon; MDA-MB-231 breast; DU-145 prostate; KM12 colon; SN12C renal; LOX IMVI melanoma; SNB-75 CNS.
Common to all, as to experiment: NCI anticancer screen, dose series, 48 h

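Briefly, cells in 96-well plates were exposed to five compound concentrations for 48 h, and endpoints were estimated by linear interpolation. TGI is the concentration that stops growth completely.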

On to `COC(=O)/C=C/[C@H]1[C@H](C)N1S(=O)(=O)c1ccc(C)cc1` (stereo partly drawn), for which the TGI with HS 578T breast, in the test with COLO 205 colon, in the test on MDA-MB-231 breast, with DU-145 prostate, in the test with KM12 colon and with SN12C renal was over 100 µM throughout. In the test with LOX IMVI melanoma, this molecule gave a TGI of over 100 µM.

For `FC(F)(F)c1ccc(N=NN2CCCC2)cc1`, the TGI in the test on HS 578T breast is over 100 µM; in the test on COLO 205 colon, over 100 µM; in the test on MDA-MB-231 breast it was over 100 µM; in the test on DU-145 prostate it was over 100 µM; in the test on KM12 colon it was 65.2 µM; in the test with SN12C renal it was over 100 µM. For the same molecule, the TGI in the test with LOX IMVI melanoma was over 100 µM.

Regarding `CCOC(=O)C(/C=N/C(N)=S)=C(/O)c1ccccc1`, the TGI in the test on COLO 205 colon, with MDA-MB-231 breast, in the test with DU-145 prostate, with SNB-75 CNS, in the test on KM12 colon and in the test with SN12C renal was over 100 µM in each case. Also, in the test on LOX IMVI melanoma, the TGI was over 100 µM.

As for `CCOC(=O)C(C(=O)OCC)C(=S)NC1OC(COC(C)=O)C(OC(C)=O)C(OC(C)=O)C1OC(C)=O` (stereo not drawn), the TGI with HS 578T breast, in the test on COLO 205 colon, in the test on MDA-MB-231 breast, with DU-145 prostate, with KM12 colon and in the test with SN12C renal was over 100 µM in each case. The molecule also displayed a TGI in the test on LOX IMVI melanoma of over 100 µM.

Regarding `O=C1CSC2(CC(/C=C/c3ccccc3[N+](=O)[O-])=NN2c2cccc(S(=O)(=O)O)c2)N1c1nc2ccccc2s1` (stereo not drawn), the TGI in the test on HS 578T breast was over 75 µM; in the test with COLO 205 colon, over 75 µM; in the test with MDA-MB-231 breast, 32 µM; with DU-145 prostate, 27.5 µM; in the test with SNB-75 CNS, 28.8 µM; in the test with KM12 colon, 27 µM. In addition, the TGI with SN12C renal stood at 54.9 µM; in the test on LOX IMVI melanoma, 34.5 µM.

For `CCN(CC)CCCNc1c2cc(OC)ccc2nc2cccc([N+](=O)[O-])c12`, the TGI in the test on HS 578T breast was found to be 0.448 µM; with COLO 205 colon, 0.102 µM; in the test on MDA-MB-231 breast it was 0.319 µM; in the test on DU-145 prostate it was 0.426 µM; in the test with SNB-75 CNS, 0.354 µM; in the test on KM12 colon, 0.347 µM. Moreover, the TGI with SN12C renal amounted to 0.402 µM; in the test with LOX IMVI melanoma it was 0.196 µM.

`O=C(Nc1ccccn1)c1cc2c(cc1Cl)Sc1nccn1S2(=O)=O`: the TGI in the test on HS 578T breast was over 100 µM; in the test with COLO 205 colon it was 83.5 µM; with MDA-MB-231 breast, 53 µM; in the test on SNB-75 CNS it was over 100 µM; in the test with KM12 colon, over 100 µM; with SN12C renal, over 100 µM. Further, the TGI in the test on LOX IMVI melanoma is over 100 µM.

For the molecule `c1ccc2c[n+](Cc3ccnc4ccccc34)ccc2c1`, the TGI in the test with HS 578T breast, in the test on COLO 205 colon, with MDA-MB-231 breast, with DU-145 prostate, in the test with KM12 colon and in the test on SN12C renal was over 100 µM in each case. Moreover, the TGI in the test on LOX IMVI melanoma was over 100 µM.

Turning to `C[C@@H](Br)[C@@H]1CC[C@H]2c3[nH]c4ccccc4c3CCN2C1`, the TGI in the test with HS 578T breast was 33.9 µM; with COLO 205 colon it was 26.3 µM; with MDA-MB-231 breast, 41.1 µM; in the test with DU-145 prostate, over 100 µM; with SNB-75 CNS, 48.3 µM; in the test on KM12 colon, 28.5 µM. In the test with LOX IMVI melanoma, the TGI was 32.9 µM.

Consider `COc1cc(C2C(Cl)C(=O)N2NC(=O)c2ccccc2O)cc(OC)c1OC` (stereo not drawn), for which the TGI in the test with HS 578T breast was over 10 µM; in the test on DU-145 prostate, 1.91 µM; with SNB-75 CNS it was over 10 µM; in the test with KM12 colon, over 10 µM; with LOX IMVI melanoma, over 10 µM.

Take `CC(=O)Nc1ccc2cc3c(nc2n1)c1cccnc1n3S(=O)(=O)c1ccccc1`: the TGI in the test on HS 578T breast, in the test with COLO 205 colon, with MDA-MB-231 breast, in the test on SNB-75 CNS, in the test on KM12 colon and in the test on SN12C renal was over 100 µM in each case. Further, in the test with LOX IMVI melanoma, the TGI is over 100 µM.

For the molecule `O=C(O)Cc1ccc(-n2nnc3c(=O)[nH][nH]c(=O)c32)cc1`, the TGI with COLO 205 colon, in the test with MDA-MB-231 breast, in the test on DU-145 prostate, in the test with KM12 colon, with SN12C renal and with LOX IMVI melanoma was over 100 µM each time.

For the molecule `COc1ccc(-c2c3c(n(C4OC(COC(C)=O)C(OC(C)=O)C(OC(C)=O)C4OC(C)=O)c(=S)c2C#N)CCCC3)cc1` (stereo not drawn), the TGI in the test on COLO 205 colon is over 100 µM; in the test on MDA-MB-231 breast it was over 100 µM; in the test with DU-145 prostate, over 100 µM; in the test on SNB-75 CNS, 94 µM; with KM12 colon it was over 100 µM; in the test with SN12C renal, over 100 µM. The TGI in the test with LOX IMVI melanoma was over 100 µM.

Regarding `O=c1[nH]nc(-c2ccccc2)c2[nH]c3c(c12)CCCc1ccccc1-3`, the TGI with HS 578T breast amounted to 38.7 µM; with COLO 205 colon it was 22.2 µM; in the test on MDA-MB-231 breast, 52.4 µM; in the test with DU-145 prostate it was 57.8 µM; in the test on KM12 colon, 23.5 µM; with SN12C renal, 35.8 µM. The molecule also gave a TGI in the test on LOX IMVI melanoma of 33.7 µM.

With `Cc1cccc2c1CC1(Cc3c(C)cccc3C1=O)C2=O`, the TGI in the test with HS 578T breast, in the test with MDA-MB-231 breast, in the test on DU-145 prostate, in the test on SNB-75 CNS and with LOX IMVI melanoma was over 100 µM throughout.

On to `C/C(=N\Nc1nc2ccccc2[nH]1)c1ccc2ccccc2n1`, for which the TGI in the test on HS 578T breast came to 35 µM; in the test with COLO 205 colon, 16.2 µM; in the test with MDA-MB-231 breast, 12.5 µM; in the test with DU-145 prostate it was 5.88 µM; in the test on KM12 colon it was 14.3 µM; in the test with SN12C renal it was 7.57 µM. In addition, in the test with LOX IMVI melanoma, the TGI was determined as 10.2 µM.

With `COc1ccc(/C=C2/C(=O)C(c3ccccc3)N(c3ccccc3)C2=O)cc1OC` (stereo not drawn), the TGI in the test on HS 578T breast, with COLO 205 colon, with MDA-MB-231 breast, with DU-145 prostate, in the test with KM12 colon and in the test with SN12C renal was over 10 µM throughout. In the test on LOX IMVI melanoma, the TGI was over 10 µM.

In the case of `Nc1nc(=O)n(C2CC(O)C(CO)O2)c2nc(-c3ccc(-c4ccccc4)cc3)cnc12` (stereo not drawn), the TGI with HS 578T breast is 93.9 µM; in the test with COLO 205 colon it was over 100 µM; in the test on MDA-MB-231 breast it was 50.1 µM; with DU-145 prostate it was over 100 µM; in the test with SNB-75 CNS, 66.8 µM; in the test on SN12C renal it was over 100 µM. Also, the TGI with LOX IMVI melanoma is over 100 µM.
